1 compound from ChEMBL document CHEMBL1138224, “Design, synthesis, and biological evaluation of peptidomimetic inhibitors of factor XIa as novel anticoagulants” (J Med Chem, 2006) can be followed below.

The target in data set [1] is Vitamin K-dependent protein C (Homo sapiens, UniProt P04070). Kind of data set: Inhibition of activated protein C.
The target in data set [2] is Coagulation factor X (Homo sapiens, UniProt P00742). The data set is described as follows: Inhibition of factor 10a.
Data set [3] addresses Plasma kallikrein (Homo sapiens, UniProt P03952). The data set is described as follows: Inhibition of plasma kallikrein. It is filed as cell-free.
Data set [4] in a line: Volume of distribution in iv dosed rat. It counts as ADME, organism-based. The settings on record: in vivo, read-out: Vdss.
The nature of data set [5]: Clearance in iv dosed rat. It is filed as ADME, organism-based. To be noted: in vivo.
The nature of data set [6]: Half life in iv dosed rat. It is filed as ADME, organism-based. The settings on record: in vivo.
The target of data set [7] is Prothrombin (Homo sapiens, UniProt P00734). Kind of data set: Inhibition of thrombin.
Data set [8] deals with Coagulation factor XI (Homo sapiens, UniProt P03951). Kind of data set: Inhibition of factor 11a.
The target of data set [9] is T1, Coagulation factor VII (Homo sapiens, UniProt P08709).
T1 sequence (P08709 whole entry): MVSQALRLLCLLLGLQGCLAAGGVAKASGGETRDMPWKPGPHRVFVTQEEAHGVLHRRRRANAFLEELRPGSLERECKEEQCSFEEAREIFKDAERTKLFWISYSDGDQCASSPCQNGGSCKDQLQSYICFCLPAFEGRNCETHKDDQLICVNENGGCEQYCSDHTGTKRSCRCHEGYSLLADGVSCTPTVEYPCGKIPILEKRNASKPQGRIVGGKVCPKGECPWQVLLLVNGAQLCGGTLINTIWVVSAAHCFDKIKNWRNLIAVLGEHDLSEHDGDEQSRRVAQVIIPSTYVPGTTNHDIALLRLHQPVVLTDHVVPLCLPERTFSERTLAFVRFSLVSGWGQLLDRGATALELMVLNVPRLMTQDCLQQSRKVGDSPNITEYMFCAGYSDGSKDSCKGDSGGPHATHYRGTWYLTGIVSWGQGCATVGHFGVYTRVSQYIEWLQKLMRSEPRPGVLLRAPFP
Kind of data set: Inhibition of factor 7a.

Chain of Plasma kallikrein (P03952 20-390 limits assumed): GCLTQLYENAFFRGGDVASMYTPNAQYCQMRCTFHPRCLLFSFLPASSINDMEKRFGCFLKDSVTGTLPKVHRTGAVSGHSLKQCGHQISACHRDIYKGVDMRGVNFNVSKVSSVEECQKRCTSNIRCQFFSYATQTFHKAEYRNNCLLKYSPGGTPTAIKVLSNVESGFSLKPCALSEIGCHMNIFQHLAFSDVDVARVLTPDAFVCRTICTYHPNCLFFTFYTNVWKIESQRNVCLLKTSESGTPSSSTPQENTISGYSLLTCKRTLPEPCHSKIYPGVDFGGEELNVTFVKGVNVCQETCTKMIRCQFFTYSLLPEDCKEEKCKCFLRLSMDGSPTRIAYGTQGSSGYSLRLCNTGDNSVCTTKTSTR
Chain of Plasma kallikrein (P03952 391-638 limits assumed): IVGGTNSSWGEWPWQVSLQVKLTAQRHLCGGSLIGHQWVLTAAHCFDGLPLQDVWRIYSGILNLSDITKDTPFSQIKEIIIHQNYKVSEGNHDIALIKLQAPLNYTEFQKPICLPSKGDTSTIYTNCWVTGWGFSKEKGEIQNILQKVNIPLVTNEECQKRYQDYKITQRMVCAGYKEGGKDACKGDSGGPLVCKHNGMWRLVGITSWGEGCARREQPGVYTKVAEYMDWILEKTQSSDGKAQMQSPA
Chain of Vitamin K-dependent protein C (P04070 43-197 limits assumed): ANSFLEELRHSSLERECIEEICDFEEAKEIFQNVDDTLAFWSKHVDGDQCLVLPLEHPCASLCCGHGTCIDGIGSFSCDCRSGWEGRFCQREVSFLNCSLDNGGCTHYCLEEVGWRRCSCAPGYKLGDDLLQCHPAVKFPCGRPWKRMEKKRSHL
Chain of Vitamin K-dependent protein C (P04070 212-461 limits assumed): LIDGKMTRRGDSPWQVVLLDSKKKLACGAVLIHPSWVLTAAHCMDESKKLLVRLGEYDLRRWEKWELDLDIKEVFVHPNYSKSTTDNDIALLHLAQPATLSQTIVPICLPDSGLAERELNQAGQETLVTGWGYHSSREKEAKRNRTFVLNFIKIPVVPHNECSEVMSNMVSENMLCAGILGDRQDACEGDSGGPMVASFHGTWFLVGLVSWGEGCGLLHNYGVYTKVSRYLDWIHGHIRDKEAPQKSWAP
Chain of Coagulation factor X (P00742 41-179 limits assumed): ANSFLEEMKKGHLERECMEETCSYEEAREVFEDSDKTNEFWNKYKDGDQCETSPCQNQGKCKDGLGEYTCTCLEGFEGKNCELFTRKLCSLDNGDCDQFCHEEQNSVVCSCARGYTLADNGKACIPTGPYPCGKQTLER
Chain of Coagulation factor X (P00742 235-488 limits assumed): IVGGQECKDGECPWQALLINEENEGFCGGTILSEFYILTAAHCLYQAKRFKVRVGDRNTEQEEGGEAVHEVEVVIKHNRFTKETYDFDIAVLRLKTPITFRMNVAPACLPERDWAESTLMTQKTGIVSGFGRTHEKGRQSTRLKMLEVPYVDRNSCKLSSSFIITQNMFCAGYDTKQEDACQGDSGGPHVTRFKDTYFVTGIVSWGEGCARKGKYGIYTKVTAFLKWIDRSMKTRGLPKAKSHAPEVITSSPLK
Chain of Coagulation factor XI (P03951 19-387 limits assumed): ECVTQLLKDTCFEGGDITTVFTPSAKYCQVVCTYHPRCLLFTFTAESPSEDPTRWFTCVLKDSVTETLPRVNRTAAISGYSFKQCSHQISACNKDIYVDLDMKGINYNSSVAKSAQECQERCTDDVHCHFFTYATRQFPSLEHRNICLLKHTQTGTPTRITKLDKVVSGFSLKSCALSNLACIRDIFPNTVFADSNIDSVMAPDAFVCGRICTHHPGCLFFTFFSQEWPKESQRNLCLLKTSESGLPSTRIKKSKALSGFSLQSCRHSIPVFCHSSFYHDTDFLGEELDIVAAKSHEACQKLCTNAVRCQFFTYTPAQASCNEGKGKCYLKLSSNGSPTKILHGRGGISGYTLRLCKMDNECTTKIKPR
Chain of Coagulation factor XI (P03951 388-625 limits assumed): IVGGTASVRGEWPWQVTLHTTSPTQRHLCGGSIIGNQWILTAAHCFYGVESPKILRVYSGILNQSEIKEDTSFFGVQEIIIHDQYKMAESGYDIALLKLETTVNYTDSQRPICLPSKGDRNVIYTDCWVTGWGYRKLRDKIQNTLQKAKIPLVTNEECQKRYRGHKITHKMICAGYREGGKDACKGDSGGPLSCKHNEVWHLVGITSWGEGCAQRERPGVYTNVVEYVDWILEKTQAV

Take `CC(C)[C@H](NC(=O)[C@H](Cc1ccc(O)cc1)NC(=O)N[C@H](C)c1ccc(Br)cc1)C(=O)N[C@@H](CCCN=C(N)N)C(=O)c1nccs1`: the IC50 – broadly, the concentration needed to halve the response being measured – in [1] was determined as 20700 nM; in data set [2], 1600 nM; in data set [3], 10 nM; in data set [7], 2040 nM; in data set [8], 6 nM; in data set [9], 38000 nM. For the same compound, the Vd in data set [4] stood at 0.236 L/kg. In data set [5], the clearance (in general, the rate of elimination divided by the concentration) is 32 mL/min/kg. Further, the half-life (as a rule, the time in which the quantity being followed falls by half) in data set [6] stood at 45 min.
